Patent US5446207A, “Anti-dyslipidemic agents” (Harbor Branch Oceanographic Institution, Inc., priority 1993, dated 1995)

Biological target: T1, recombinant CETP (rCETP) (Homo sapiens, UniProt P11597)
T1 sequence (P11597 18-493): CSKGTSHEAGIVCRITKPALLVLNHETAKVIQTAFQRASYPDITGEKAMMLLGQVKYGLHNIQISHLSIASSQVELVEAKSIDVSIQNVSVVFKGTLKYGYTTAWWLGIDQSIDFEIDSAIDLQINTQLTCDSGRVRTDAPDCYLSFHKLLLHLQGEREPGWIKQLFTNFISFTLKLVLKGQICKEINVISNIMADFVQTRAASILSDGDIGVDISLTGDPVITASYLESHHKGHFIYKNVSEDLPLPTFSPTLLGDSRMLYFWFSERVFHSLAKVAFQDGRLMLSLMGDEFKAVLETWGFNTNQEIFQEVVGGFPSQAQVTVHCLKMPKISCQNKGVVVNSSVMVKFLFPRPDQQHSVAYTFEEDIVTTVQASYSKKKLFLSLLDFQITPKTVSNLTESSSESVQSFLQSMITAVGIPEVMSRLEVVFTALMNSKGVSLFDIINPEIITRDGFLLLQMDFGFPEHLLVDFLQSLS
Test: CETP scintillation proximity assay (transfer of [3H]cholesteryl esters from HDL to biotinylated LDL)
Assay type: biochemical
Details: for IC50: rCETP, 37° C., 4 hours, SPA, read-out: IC50 (inhibition of CETP transfer activity); for activity in the cholesteryl ester transfer protein (CETP) assay: statement in words
Protocol: This assay used a commercially available CETP Scintillation Proximity Assay kit (Amersham TRKQ7015). In this assay, the transfer of [^3 H]cholesteryl esters from high density lipoprotein (HDL) to biotinylated low density lipoproteins (LDL) was measured following incubation of donor and acceptor particles in the presence of recombinant CETP (rCETP; see Wang S. et al J. Biol. Chem. (1992) 267:1746-17490 which is herein incorporated by reference). Following incubation, the reaction was terminated and transfer was measured in a single step addition of streptavidin SPA beads, formulated in an assay terminal buffer (Amersham). The rate of increase in signal was proportional to the transfer of [^3 H]cholesteryl ester by CETP.
To 96-well microtiter plates ([…] Microlite) was pipetted 5 μl of sample (or buffer for blank) of appropriate dilution. […] As a control, 5 μl of CETP monoclonal antibody TP-1, 1:10 dilution from ascites was added. The reaction was started by adding 45 μl of the following mixtures to each well.
20 μl of assay buffer (from kit)
10 μl ^3 H]Cholesteryl ester-HDL (from kit)
10 μl of biotinylated LDL (from kit)
The contents of the plate were mixed briefly by tapping the plate gently and then the plate was sealed with parafiim to prevent evaporation during the incubation. The plates were incubated at 37° C. for 4 hours. After incubation the reaction was stopped by adding 200 μl of streptavidin beads to each well. The beads were shaken gently before addition. The mixture was incubated at room temperature for 30 minutes to allow the assay to come to equilibrium with beads. Dpm were counted on a TopCount (Packard Instrument Company, Downers Grove, Ill.) (A conventional scintillation counter with window settings fully open may also be used).

## COc1ccc(O)c(O)c1CC1=C(C)CC[C@H]2C(C)(C)CCC[C@]12C (relative stereo) [Compound A, wiedendioI-A]
  IC50: 2000 nM
  activity in the cholesteryl ester transfer protein (CETP) assay: active

## COc1ccc(O)c(O)c1/C=C1\[C@@H](C)CC[C@H]2C(C)(C)CCC[C@]12C (relative stereo) [Compound B, wiedendioI-B]
  IC50: 2900 nM
  activity in the cholesteryl ester transfer protein (CETP) assay: active
